In patent US5316929A, “Process for the preparation of MA” (Hoechst Aktiengesellschaft, priority 1991, dated 1994):
“Also recorded” adds a separate entry of the source.

Assays:
moenomycinase = test: Moenomycinase activity (cleavage of moenomycin A, TLC/UV analysis); format: biochemical, Bacillus sp. DSM 4675; settings: for Activation of moenomycinase: metal ions 0.05-1.0 mM; for Inhibition of moenomycinase: EDTA 10 mM in FIG. 1
Procedure: Partially purified moenomycinase was dialyzed for 24 hours. The dialyzed moenomycinase was incubated with moenomycin A (6 mg/ml) in 100 mM potassium phosphate buffer, pH 8.0, for 31 hours with the addition of metal ions (0.5 or 1.0 mM, except K^+ =20 mM0 or EDTA (10 mM). Enzyme activity was measured by determining the amount of MC formed using TLC and UV analysis as described in Example 3. The TLC plates were scanned at a wavelength of 254 nm using a DESAGA Chromatogram Densitometer CD50. Enzyme activity is expressed relative to the activity of the dialyzed preparation ("Dial").
FIG. 2. Activation of Moenomycinase by Cobalt. Purified moenomycinase was incubated with moenomycin A in the presence of the indicated concentrations of Co^++. Enzyme activity was measured by determining the amount of MB formed using TLC and UV analysis as described in FIG. 1.
The molecular weight of moenomycinase is 230,000±10,000 Dalton. Moenomycinase has an optical pH of 8.0 to 8.5 and an optimal temperature of 45° to 55° C. Moenomycinase has a Km value of 4 to 10 mmolar based on moenomycin A as substrate.

[1] = tested on: biosynthesis of the peptidoglycan framework of the bacterial cell wall; settings: cited from earlier work

## [Ca+2] [Ca^++]
moenomycinase
  Activation of moenomycinase: activated

## CC(=O)OCC1=C(C(=O)O)N2C(=O)[C@@H](NC(=O)CCC[C@@H](N)C(=O)O)[C@H]2SC1 [Cephalosporin C]
moenomycinase
  Inhibition of moenomycinase: inhibited

## [Ni+2] [Ni^++]
moenomycinase
  Activation of moenomycinase: activated; also recorded: greatest activation

## [Co+2] [Co^++]
moenomycinase
  Activation of moenomycinase: activated

## CC(=O)OCC1=C(C(=O)O)N2C(=O)[C@@H](N)[C@H]2SC1 [7-aminocephalosporin acid (7-ACA), 7-aminocephalosporin acid]
moenomycinase
  Inhibition of moenomycinase: inhibited

## [Mg+2] [Mg^++]
moenomycinase
  Activation of moenomycinase: activated

## C=C(C/C=C(\C)CCC=C(C)C)CCC(C)(C)/C=C/CC/C(C)=C/CO[C@@H](COP(=O)(O)O[C@H]1O[C@H](C(N)=O)[C@@](C)(O)[C@H](OC(N)=O)[C@H]1O[C@@H]1O[C@H](CO[C@@H]2O[C@H](CO)[C@@H](O)[C@H](O)[C@H]2O)[C@@H](O[C@@H]2O[C@H](C)[C@@H](O[C@@H]3O[C@H](C(=O)NC4=C(O)CCC4=O)[C@H](O)[C@H](O)[C@H]3O)[C@H](O)[C@H]2NC(C)=O)[C@H](O)[C@H]1NC(C)=O)C(=O)O [Moenomycin A]
[1]
  Inhibition of the biosynthesis of the peptidoglycan framework of the bacterial cell wall: inhibits

## O=C(O)CN(CCN(CC(=O)O)CC(=O)O)CC(=O)O [EDTA]
moenomycinase
  Inhibition of moenomycinase: inhibited

## C=O [formalin]
moenomycinase
  Inhibition of moenomycinase: inhibited
